The values that follow come from ChEMBL document CHEMBL1133215, “Natural and synthetic analogues of actinomycin D as Grb2-SH2 domain blockers” (Bioorg Med Chem Lett, 2000).

Numbered stars: 1 amine (or outer) side, 2 acyl side, 3 side chain; on linkers, the order of the positions; unused ones are H or OH. Bridge positions count the residues as written; N and C are the ends. Square brackets hold non-standard residues; d marks the D form. Peptide text beside a SMILES is read from it. I, II: the chains in the order shown. Actinocin(1to9) = Cc1c2oc3c(C)ccc(C(=O)[*:2])c3nc-2c(C(=O)[*:1])c(N)c1=O; NMeV = CN[C@H](C(=O)O)C(C)C; Sar = CNCC(=O)O

Experiment [1] has as its target Growth factor receptor-bound protein 2 (Mus musculus, UniProt Q60631). The experiment can be described thus: In vitro binding assay of Shc-derived phosphopeptide to Growth factor receptor bound protein 2 SH2 in B104-1-1 cells was determined. It counts as cell-based.
Experiment [2] relates to B104. In words: Growth inhibitory activity was tested against B104-1-1 cells. It counts as functional, Mus musculus.
In experiment [3] the target is Growth factor receptor-bound protein 2 (Mus musculus) (UniProt Q60631). In words: In vitro inhibitory activity against Shc/Grb2 interactions in B104-1-1 cells at 5 uM. It counts as functional, cell-based.
Sequence of Growth factor receptor-bound protein 2 (Mus musculus) (Q60631 whole entry): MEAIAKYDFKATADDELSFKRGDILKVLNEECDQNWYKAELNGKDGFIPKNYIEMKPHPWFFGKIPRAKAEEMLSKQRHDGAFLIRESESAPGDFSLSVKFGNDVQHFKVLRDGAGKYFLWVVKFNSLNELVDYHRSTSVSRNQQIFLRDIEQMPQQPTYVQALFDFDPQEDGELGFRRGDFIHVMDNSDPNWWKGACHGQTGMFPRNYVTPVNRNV
Experiment [4] shares this target. In words: In vitro inhibitory activity against Shc/Grb2 interactions in B104-1-1 cells at 2 uM. It counts as functional, cell-based.

Sequence of Growth factor receptor-bound protein 2 (Q60631 whole entry): as above

As usually defined, the IC50 is the concentration needed to halve the response being measured. A high value points to a need for much substance. Turning to `Cc1c2oc3c(C)ccc(C(=O)N[C@@H]4C(=O)N[C@H](C(C)C)C(=O)N5CCC[C@H]5C(=O)N(C)CC(=O)N[C@@H](Cc5ccc(O)cc5)C(=O)O[C@@H]4C)c3nc-2c(C(=O)N[C@@H]2C(=O)N[C@H](C(C)C)C(=O)N3CCC[C@H]3C(=O)N(C)CC(=O)N[C@@H](Cc3ccc(O)cc3)C(=O)O[C@@H]2C)c(N)c1=O` (stereo in doubt; 10) [listing 1 of 2 here], the half-maximal inhibitory concentration (IC50) in experiment [1] was 0.8 µM.
As a reminder, the GI50 is the concentration at which growth is held to half of that of the control. Lower therefore signals more potent growth inhibition. For orientation: inhibition means the share of the control response that was lost under treatment. As to `COc1ccc(C[C@H]2NC(=O)[C@@H](NC(=O)c3c4nc5c(C(=O)N[C@@H]6C(=O)N[C@H](Cc7ccc(OC)cc7)C(=O)N7CCC[C@H]7C(=O)N(C)CC(=O)N[C@@H](C(C)C)C(=O)O[C@@H]6C)ccc(C)c5oc-4c(C)c(=O)c3N)[C@@H](C)OC(=O)[C@H](C(C)C)NC(=O)CN(C)C(=O)[C@@H]3CCCN3C2=O)cc1`, the IC50 in experiment [1] was found to be 1.5 µM. For the same compound, in experiment [2], it took 0.01 µM to inhibit growth by half (GI50). Further, the inhibition came to 80.6% in experiment [3] and 69.7% in experiment [4].
Consider `Cc1c2oc3c(C)ccc(C(=O)N[C@@H]4C(=O)N[C@H](C(C)C)C(=O)N5CCC[C@H]5C(=O)N(C)CC(=O)N(C)[C@@H](C(C)C)C(=O)O[C@@H]4C)c3nc-2c(C(=O)N[C@@H]2C(=O)N[C@H](C(C)C)C(=O)N3CCC[C@H]3C(=O)N(C)CC(=O)N(C)[C@@H](C(C)C)C(=O)O[C@@H]2C)c(N)c1=O` [DACTINOMYCIN] (I: T[dV]P[Sar][NMeV] / II: T[dV]P[Sar][NMeV]; ester I:1-I:C, II:1-II:C; linker I:N-II:N via Actinocin(1to9)), for which, in experiment [1], the IC50 was 5 µM. In experiment [2], the GI50 was found to be 0.0007 µM. For the same compound, the inhibition in experiment [3] was 50.5%; in experiment [4], 40.1%.
Turning to `Cc1c2oc3c(C)ccc(C(=O)N[C@@H]4C(=O)N[C@H](C(C)C)C(=O)N5CCC[C@H]5C(=O)N(C)CC(=O)N[C@H](Cc5ccc(O)cc5)C(=O)O[C@@H]4C)c3nc-2c(C(=O)N[C@@H]2C(=O)N[C@H](C(C)C)C(=O)N3CCC[C@H]3C(=O)N(C)CC(=O)N[C@H](Cc3ccc(O)cc3)C(=O)O[C@@H]2C)c(N)c1=O` (stereo in doubt; 12) [listing 1 of 2 here], the inhibition worked out at 90.2% in experiment [3] and 79.9% in experiment [4].
For the compound `Cc1c2oc3c(C)ccc(C(=O)N[C@@H]4C(=O)N[C@H](C(C)C)C(=O)N5CCC[C@H]5C(=O)N(C)CC(=O)N[C@H](Cc5ccc(O)cc5)C(=O)O[C@@H]4C)c3nc-2c(C(=O)N[C@@H]2C(=O)N[C@H](C(C)C)C(=O)N3CCC[C@H]3C(=O)N(C)CC(=O)N[C@H](Cc3ccc(O)cc3)C(=O)O[C@@H]2C)c(N)c1=O` (stereo in doubt; 12) [listing 2 of 2 here], the IC50 in experiment [1] amounted to 0.8 µM.
`Cc1c2oc3c(C)ccc(C(=O)N[C@@H]4C(=O)N[C@H](C(C)C)C(=O)N5CCC[C@H]5C(=O)N(C)CC(=O)N[C@@H](Cc5ccccc5)C(=O)O[C@@H]4C)c3nc-2c(C(=O)N[C@@H]2C(=O)N[C@H](C(C)C)C(=O)N3CCC[C@H]3C(=O)N(C)CC(=O)N[C@@H](Cc3ccccc3)C(=O)O[C@@H]2C)c(N)c1=O` registered a half-maximal inhibitory concentration (IC50) in experiment [1] of 1.8 µM. For the same compound, the figures for the inhibition in experiment [3] and in experiment [4] were 78.8% and 56.8%, respectively.
On to `Cc1c2oc3c(C)ccc(C(=O)N[C@@H]4C(=O)N[C@H](C(C)C)C(=O)N5CCC[C@H]5C(=O)N(C)CC(=O)N[C@@H](Cc5ccc(O)cc5)C(=O)O[C@@H]4C)c3nc-2c(C(=O)N[C@@H]2C(=O)N[C@H](C(C)C)C(=O)N3CCC[C@H]3C(=O)N(C)CC(=O)N[C@@H](Cc3ccc(O)cc3)C(=O)O[C@@H]2C)c(N)c1=O` (stereo in doubt; 8) [listing 1 of 2 here], for which the results for the inhibition in experiment [3] and in experiment [4] were 28.5% and 15.9%, respectively.
As for `COc1ccc(C[C@H]2NC(=O)CN(C)C(=O)[C@@H]3CCCN3C(=O)[C@@H](C(C)C)NC(=O)[C@@H](NC(=O)c3c4nc5c(C(=O)N[C@@H]6C(=O)N[C@H](C(C)C)C(=O)N7CCC[C@H]7C(=O)N(C)CC(=O)N[C@H](Cc7ccc(OC)cc7)C(=O)O[C@@H]6C)ccc(C)c5oc-4c(C)c(=O)c3N)[C@@H](C)OC2=O)cc1`, in experiment [1], the IC50 was determined as 2 µM. The inhibition was 73% in experiment [3] and 46.9% in experiment [4].
Regarding `Cc1c2oc3c(C)ccc(C(=O)N[C@@H]4C(=O)N[C@H](Cc5ccc(O)cc5)C(=O)N5CCC[C@H]5C(=O)N(C)CC(=O)N[C@@H](C(C)C)C(=O)O[C@@H]4C)c3nc-2c(C(=O)N[C@@H]2C(=O)N[C@H](Cc3ccc(O)cc3)C(=O)N3CCC[C@H]3C(=O)N(C)CC(=O)N[C@@H](C(C)C)C(=O)O[C@@H]2C)c(N)c1=O` (stereo in doubt; 1), the IC50 in experiment [1] came to 0.5 µM. In other words, the sub-micromolar range.
On to `COc1ccc(C[C@@H]2NC(=O)CN(C)C(=O)[C@@H]3CCCN3C(=O)[C@@H](C(C)C)NC(=O)[C@@H](NC(=O)c3c4nc5c(C(=O)N[C@@H]6C(=O)N[C@H](C(C)C)C(=O)N7CCC[C@H]7C(=O)N(C)CC(=O)N[C@@H](Cc7ccc(OC)cc7)C(=O)O[C@@H]6C)ccc(C)c5oc-4c(C)c(=O)c3N)[C@@H](C)OC2=O)cc1`, for which, in experiment [1], the half-inhibitory concentration (IC50) was determined as 2 µM. For the same compound, the figures for the inhibition in experiment [3] and in experiment [4] were 73.8% and 55.1%, respectively.
Turning to `Cc1c2oc3c(C)ccc(C(=O)N[C@@H]4C(=O)N[C@H](C(C)C)C(=O)N5CCC[C@H]5C(=O)N(C)CC(=O)N[C@@H](Cc5ccc(O)cc5)C(=O)O[C@@H]4C)c3nc-2c(C(=O)N[C@@H]2C(=O)N[C@H](C(C)C)C(=O)N3CCC[C@H]3C(=O)N(C)CC(=O)N[C@@H](Cc3ccc(O)cc3)C(=O)O[C@@H]2C)c(N)c1=O` (stereo in doubt; 10) [listing 2 of 2 here], the values for the inhibition in experiment [3] and in experiment [4] were 89.7% and 75.9%, respectively.
`Cc1c2oc3c(C)ccc(C(=O)N[C@@H]4C(=O)N[C@H](C(C)C)C(=O)N5CCC[C@H]5C(=O)N(C)CC(=O)N[C@H](Cc5ccc(O)cc5)C(=O)O[C@@H]4C)c3nc-2c(C(=O)N[C@@H]2C(=O)N[C@H](C(C)C)C(=O)N3CCC[C@H]3C(=O)N(C)CC(=O)N[C@H](Cc3ccc(O)cc3)C(=O)O[C@@H]2C)c(N)c1=O` (stereo in doubt; 5) displayed an IC50 in experiment [1] of more than 10 µM.
In experiment [1], `Cc1c2oc3c(C)ccc(C(=O)N[C@@H]4C(=O)N[C@H](C(C)C)C(=O)N5CCC[C@H]5C(=O)N(C)CC(=O)N[C@@H](Cc5ccc(O)cc5)C(=O)O[C@@H]4C)c3nc-2c(C(=O)N[C@@H]2C(=O)N[C@H](C(C)C)C(=O)N3CCC[C@H]3C(=O)N(C)CC(=O)N[C@@H](Cc3ccc(O)cc3)C(=O)O[C@@H]2C)c(N)c1=O` (stereo in doubt; 8) [listing 2 of 2 here] yielded an IC50 of more than 10 µM.
Take `Cc1c2oc3c(C)ccc(C(=O)N[C@@H]4C(=O)N[C@H](Cc5ccc(O)cc5)C(=O)N5CCC[C@H]5C(=O)N(C)CC(=O)N[C@@H](C(C)C)C(=O)O[C@@H]4C)c3nc-2c(C(=O)N[C@@H]2C(=O)N[C@H](Cc3ccc(O)cc3)C(=O)N3CCC[C@H]3C(=O)N(C)CC(=O)N[C@@H](C(C)C)C(=O)O[C@@H]2C)c(N)c1=O` (stereo in doubt; 7) [listing 1 of 2 here]: the inhibition was 56.6% in experiment [3] and 42.9% in experiment [4].
In experiment [1], `Cc1c2oc3c(C)ccc(C(=O)N[C@@H]4C(=O)N[C@H](Cc5ccc(O)cc5)C(=O)N5CCC[C@H]5C(=O)N(C)CC(=O)N[C@@H](C(C)C)C(=O)O[C@@H]4C)c3nc-2c(C(=O)N[C@@H]2C(=O)N[C@H](Cc3ccc(O)cc3)C(=O)N3CCC[C@H]3C(=O)N(C)CC(=O)N[C@@H](C(C)C)C(=O)O[C@@H]2C)c(N)c1=O` (stereo in doubt; 7) [listing 2 of 2 here] gave an IC50 of 4.5 µM.
